How the values were obtained:
[1] = test system: P. aeruginosa strain PAO1; test: Static biofilm inhibition assay (crystal violet), PAO1; type: cell-based, Pseudomonas aeruginosa
Procedure, shortened: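 Overnight PAO1 culture subcultured to OD600 0.10 in LBNS with compound (initial screen at 500 μM), incubated statically in PVC wells at 37 °C for 24 h. Washed biofilm stained with 0.1% crystal violet 30 min, solubilized in 95% ethanol, read at A540; % inhibition relative to bacteria-only wells after background subtraction.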

P. aeruginosa PA14 = test: Static biofilm inhibition assay (crystal violet), PA14; type: cell-based, Pseudomonas aeruginosa
Procedure, shortened: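 PA14 subcultured at OD600 0.10 in LBNS with compound, grown stationary 24 h at 37 °C in PVC plates. Adhered biofilm stained with 0.1% crystal violet, solubilized in 95% ethanol and read at OD540; inhibition expressed relative to bacteria-only wells after background subtraction.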

[2] = test system: PDO300, mucoid strain of P. aeruginosa; test: Static biofilm inhibition assay (crystal violet), PDO300; type: cell-based; settings: Pseudomonas aeruginosa, 24 h, read-out: IC50 against PDO300
Protocol: PDO300 was employed to assay if TAGE would inhibit the formation of mucoid biofilms. PDO300 is a well-characterized mucoid strain of P. aeruginosa that is genotypically identical to PAO1 except for the mucA mutation that converts the bacterium to the mucoid phenotype (Mathee et al., Microbiology, 1999, 145, 1349), PDO300 biofilms were allowed to develop in a 96-well plate in the absence or presence of TAGE. After 24 hours, the media and planktonic bacteria were removed, the wells were washed vigorously, and crystal violet was added. Crystal violet stains the bacterial biofilm that forms on the inside wall of the well at the air/liquid interface, which, following ethanol solubilization, can be quantitated by spectrophotometry (A540) (O'Toole et al., Mol. Microbiol., 1998, 30, 295).
An overnight culture of the bacterial strain being screened against was subcultured at an OD600 of 0.1 into the media used (listed below with strain) and then pipetted into test tubes along with a predetermined concentration of our compound of interest. Test tubes were then poured into tilted Petri dishes and 100 μL of media, strain and compound were then transferred into 96-well PVC microtiter plates. […] The quantification of biofilm formation was accomplished by transferring 125 μL of the ethanol solution into a polystyrene microtiter dish, which was read by spectrophotometry (A540). […]

[3] = test system: Acinetobacter Baumannii (ATCC 19606); test: Static biofilm inhibition assay (crystal violet), A. baumannii; type: cell-based; settings: ATCC19606, inhibition of biofilm formation, 24 hours, read-out: IC50 value for inhibition against A. baumannii
Protocol: (§1) An overnight culture of the bacterial strain being screened against was subcultured at an OD600 of 0.1 into the media used (listed below with strain) and then pipetted into test tubes along with a predetermined concentration of our compound of interest. Test tubes were then poured into tilted Petri dishes and 100 μL of media, strain and compound were then transferred into 96-well PVC microtiter plates. These microtiter plates were then covered, wrapped in Saran™ Wrap polyethylene film (S.C. Johnson, Racine, Wis.) and allowed to incubate at 37° C. for 24 hours. After that time, the medium was discarded and the plates were thoroughly washed with water. The remaining biofilm that was formed during incubation was stained with 100 μL of a 0.1% crystal violet solution and allowed to incubate at room temperature for 30 minutes. After 30 minutes, the crystal violet was discarded and washed thoroughly again with water. […] The quantification of biofilm formation was accomplished by transferring 125 μL of the ethanol solution into a polystyrene microtiter dish, which was read by spectrophotometry (A540). After the background has been subtracted from each row, a percent inhibition can be calculated by dividing the amount of crystal violet in wells that contained compound by the amount of crystal violet in wells that contained bacteria only. […]

[4] = test system: B. bronchiseptica biofilms (strain Rb50); test: Static biofilm inhibition assay (crystal violet), RB50; type: cell-based; settings: Bordetella bronchiseptica, inhibition of biofilm formation, 24 hours
Protocol: as §1

[5] = test system: planktonic P. aeruginosa PAO1; test: Planktonic growth (growth curves, colony counts), PAO1; type: cell-based, Pseudomonas aeruginosa; settings: growth curves and/or colony counts, presence vs absence of compound, at IC50 or as stated
From the text: To answer the question of whether the compounds were antibiotics or true inhibitors of biofilm formation, we tested the ability of both compounds to inhibit growth of planktonic P. aeruginosa. Growth was quantitated by measuring optical density at 600 nm. […]

[6] = test system: planktonic P. aeruginosa PA14; test: Planktonic growth (growth curves, colony counts), PA14; type: cell-based, Pseudomonas aeruginosa; settings: growth curves and/or colony counts, presence vs absence of compound, at IC50 or as stated
PDO300 = test: Planktonic growth (growth curves, colony counts), PDO300; type: cell-based, Pseudomonas aeruginosa; settings: growth curves and/or colony counts
A. baumannii = test: Planktonic growth (growth curves, colony counts), A. baumannii; type: cell-based, Acinetobacter baumannii; settings: growth curves and/or colony counts
Protocol: Screens of the three compounds were performed against A. baumannii and B. bronchiseptica.

A. baumannii biofilms = test: Biofilm dispersion, A. baumannii; type: cell-based, Acinetobacter baumannii; settings: range of concentrations, FIG. 21
Protocol: Finally, each of the TAGE derivatives were assayed for their ability to disperse pre-formed biofilms. […] While not wishing to be bound by any particular theory, it is hypothesized that the failure of these derivatives to effectively disperse biofilms, in contrast to TAGE, might be due to impeded diffusion through the biofilm matrix.
(§2) From a clinical perspective, the ability to disperse an established biofilm can be an important consideration, because a physician is typically faced with treating an established or chronic biofilm infection. DHS was assessed for its ability to disperse existing biofilms of P. aeruginosa, A. baumannii, and B. bronchiseptica. Each bacterial strain was allowed to form biofilms for 24 hours in the absence of compound. At the end of 24 hours, the media and planktonic bacteria were removed and the remaining biofilm was treated either with media alone or media containing DHS.

[7] = test system: existing biofilms of B. bronchiseptica; test: Biofilm dispersion, B. bronchiseptica; type: cell-based, Bordetella bronchiseptica; settings: range of concentrations, FIG. 21
Protocol: as §2

[8] = test system: existing biofilms of P. aeruginosa; test: Biofilm dispersion, P. aeruginosa (Example 6); type: cell-based, Pseudomonas aeruginosa; settings: range of concentrations, FIG. 21
Protocol: as §2

[9] = listed as DHS 23, hydrochloride
[10] = listed as DHS (7), hydrochloride

With `Cl.Cn1c(C(=O)NCCCc2c[nH]c(N)n2)cc(Br)c1Br` [Compound 23, 4,5-dibromo-1-methyl-pyrrole-2-carboxylic acid [3-(2-amino-1H-imidazol-4-yl)-propyl]-amide hydrochloride] the “% Biofilm Inhibition at 500 μM vs PAO1” value ([1]; 500 μM, hydrochloride) was over 95%, the inhibition at 500 µM ([1]; Pseudomonas aeruginosa, PAO1) was over 95% and the IC50 ([1]; Pseudomonas aeruginosa, PAO1, inhibition of biofilm formation, crystal violet, 24 hours) was 51 ± 9 µM. For the same compound, the “fold more active than both TAGE and CAGE” value ([1]; from IC50 values against PAO1 and PA14) was “approximately 2 fold”, the “% Biofilm Inhibition at 500 μM vs PA14” value (P. aeruginosa PA14; 500 μM, hydrochloride) was over 95% and the inhibition at 500 µM (P. aeruginosa PA14; Pseudomonas aeruginosa, PA14, 24 h) was over 95%. For the same compound, the IC50 (P. aeruginosa PA14; Pseudomonas aeruginosa, PA14, inhibition of biofilm formation, crystal violet, 24 hours) was 111 ± 8 µM, the IC50 [2] was 115 µM and the IC50 [3] was 110 µM. The IC50 [4] was 238 µM, the “microbicidal effect on PAO1 planktonic growth (in words)” value [5, 9] was “no reduction” and the “microbicidal effect on PAO1 planktonic growth (in words)” value [5, 10] was “not due to a bactericidal effect”. The “microbicidal effect on PA14 planktonic growth (in words)” value [6, 9] was “no reduction”, the “microbicidal effect on PA14 planktonic growth (in words)” value [6, 10] was “not due to a bactericidal effect” and the “bactericidal activity against PDO300 (in words)” value (PDO300) was “lacked significant bactericidal activity”. The “microbicidal effect on A. baumannii planktonic growth (in words)” value (A. baumannii) was “no microbicidal effects”, the “dispersion of existing A. baumannii biofilms (in words)” value (A. baumannii biofilms) was “able to successfully disperse” and the “dispersion of existing B. bronchiseptica biofilms (in words)” value [7] was “able to successfully disperse”. For the same compound, the “dispersion of existing P. aeruginosa biofilms (in words)” value [8] was “able to successfully disperse”.

Reference: patent US9084423B2, “Inhibition of bacterial biofilms with imidazole derivatives” (North Carolina State University, priority 2007, dated 2015)
